Reference: patent US20250230193A1, “CYCLIC COMPOUND HAVING SELECTIVE KRAS INHIBITORY EFFECT ON HRAS AND NRAS” (CHUGAI SEIYAKU KABUSHIKI KAISHA, priority 2022, published 2025)
*1 amine or outer side, *2 acyl side, *3 side chain or, on linkers, in order; H or OH if unused. Where a SMILES comes first, the peptide text is derived from it. Bridges are numbered along the chain shown (N, C = ends). [ ]: non-standard residue; d: D form. The star is where a group is joined. hPhe(3,5-F2-4-CF3) = N[C@@H](CCc1cc(F)c(C(F)(F)F)c(F)c1)C(=O)O; NPrPhe(4-CF3) = CCCN[C@@H](Cc1ccc(C(F)(F)F)cc1)C(=O)O; NMeAbu(4,4,4-F3) = CN[C@@H](CC(F)(F)F)C(=O)O; X16 = O=C([C@@H](N[*:1])C1CC(F)(F)C1)[*:2]; NMeGly(cPent) = CN[C@H](C(=O)O)C1CCCC1; Ac4c(3,3-F2) = NC1(C(=O)O)CC(F)(F)C1; X9 = C[C@@](N[*:1])(C(=O)[*:2])C1CC1; αMeCha = C[C@](N)(CC1CCCCC1)C(=O)O; Nva(3-Et) = CCC(CC)[C@H](N)C(=O)O; NMeD = CN[C@@H](CC(=O)O)C(=O)O; Ac4c(3-oxa) = NC1(C(=O)O)COC1; NMeL = CN[C@@H](CC(C)C)C(=O)O; αMeL = CC(C)C[C@](C)(N)C(=O)O; αMeS = C[C@](N)(CO)C(=O)O; Morpholide = C1CN(*)CCO1; Ac5c = NC1(C(=O)O)CCCC1; Aze = O=C(O)[C@@H]1CCN1; Sar = CNCC(=O)O; tBu = CC(C)(C)*; Allyl = C=CC*

What was measured:
[1] = biological target: GDP-bound NRAS wild-type protein (Homo sapiens, UniProt P01111); assay: Binding to NRAS by surface plasmon resonance (SPR), Single Cycle Kinetics; settings: KD ratio NRAS/KRAS, SPR
Chain of GDP-bound NRAS wild-type protein (P01111 whole entry): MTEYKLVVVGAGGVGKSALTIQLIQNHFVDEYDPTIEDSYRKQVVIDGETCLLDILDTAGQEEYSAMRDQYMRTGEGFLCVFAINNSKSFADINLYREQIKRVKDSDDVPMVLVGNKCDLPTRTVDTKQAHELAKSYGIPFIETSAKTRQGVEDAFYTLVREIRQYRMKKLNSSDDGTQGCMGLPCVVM

[2] = biological target: GDP-bound HRAS wild-type protein (Homo sapiens, UniProt P01112); assay: Binding to HRAS by surface plasmon resonance (SPR), Single Cycle Kinetics; settings: KD ratio HRAS/KRAS, SPR
Chain of GDP-bound HRAS wild-type protein (P01112 whole entry): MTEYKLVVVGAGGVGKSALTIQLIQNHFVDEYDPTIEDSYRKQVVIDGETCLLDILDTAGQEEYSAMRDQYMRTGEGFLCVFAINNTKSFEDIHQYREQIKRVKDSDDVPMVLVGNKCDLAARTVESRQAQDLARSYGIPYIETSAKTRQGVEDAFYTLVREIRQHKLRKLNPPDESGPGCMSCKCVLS

Structure (SMILES)	NRAS/KRAS (ratio of KD value with respect to GDP-bound NRAS wild-type protein to KD value with respect to KRAS) [1]	HRAS/KRAS (ratio of KD value with respect to GDP-bound HRAS wild-type protein to KD value with respect to KRAS) [2]
CCCN1C(=O)CN(C)C(=O)CN(C)C(=O)[C@H]([C@@H](C)CC)NC(=O)[C@H](CC(C)C)N(C)C(=O)C[C@@H](C(=O)N2CCOCC2)N(C)C(=O)[C@H](C2CCCC2)N(C)C(=O)[C@](C)(CC(C)C)NC(=O)[C@@H]2CCCN2C(=O)[C@H](CCc2cc(F)c(C(F)(F)F)c(F)c2)NC(=O)CN(C)C(=O)[C@@H]1Cc1ccc(C(F)(F)F)cc1 [PP0759] ([NMeL]I[Sar][Sar][NPrPhe(4-CF3)][Sar][hPhe(3,5-F2-4-CF3)]P[αMeL][NMeGly(cPent)][NMeD]-Morpholide; lactam N-11)	B (a compound having 3 or more and less than 10 is denoted as B)	B (a compound having 3 or more and less than 10 is denoted as B)
CCCN1C(=O)CN(C)C(=O)CN(C)C(=O)[C@H]([C@@H](C)CC)NC(=O)[C@H](CC(C)C)N(C)C(=O)C[C@@H](C(=O)N2CCOCC2)N(C)C(=O)[C@H](C2CCCC2)N(C)C(=O)[C@](C)(CC2CCCCC2)NC(=O)[C@@H]2CCCN2C(=O)[C@H](CCc2cc(F)c(C(F)(F)F)c(F)c2)NC(=O)CN(C)C(=O)[C@@H]1Cc1ccc(C(F)(F)F)cc1 [PP0760] ([NMeL]I[Sar][Sar][NPrPhe(4-CF3)][Sar][hPhe(3,5-F2-4-CF3)]P[αMeCha][NMeGly(cPent)][NMeD]-Morpholide; lactam N-11)	B (a compound having 3 or more and less than 10 is denoted as B)	C (A compound having a KD ratio of 0.1 or more and less than 3 is denoted as C)
CCCN1C(=O)CN(C)C(=O)CN(C)C(=O)[C@H]([C@@H](C)CC)NC(=O)[C@H](CC(C)C)N(C)C(=O)C[C@@H](C(=O)N2CCOCC2)N(C)C(=O)[C@H](C2CCCC2)N(C)C(=O)[C@](C)(COC)NC(=O)[C@@H]2CCCN2C(=O)[C@H](CCc2cc(F)c(C(F)(F)F)c(F)c2)NC(=O)CN(C)C(=O)[C@@H]1Cc1ccc(C(F)(F)F)cc1 [PP0762] ([NMeL]I[Sar][Sar][NPrPhe(4-CF3)][Sar][hPhe(3,5-F2-4-CF3)]P[αMeS](Me)[NMeGly(cPent)][NMeD]-Morpholide; lactam N-11)	B (a compound having 3 or more and less than 10 is denoted as B)	B (a compound having 3 or more and less than 10 is denoted as B)
C=CCOC[C@]1(C)NC(=O)[C@@H]2CCCN2C(=O)[C@H](CCc2cc(F)c(C(F)(F)F)c(F)c2)NC(=O)CN(C)C(=O)[C@H](Cc2ccc(C(F)(F)F)cc2)N(CCC)C(=O)CN(C)C(=O)CN(C)C(=O)[C@H]([C@@H](C)CC)NC(=O)[C@H](CC(C)C)N(C)C(=O)C[C@@H](C(=O)N2CCOCC2)N(C)C(=O)[C@H](C2CCCC2)N(C)C1=O [PP0763] ([NMeL]I[Sar][Sar][NPrPhe(4-CF3)][Sar][hPhe(3,5-F2-4-CF3)]P[αMeS](Allyl)[NMeGly(cPent)][NMeD]-Morpholide; lactam N-11)	B (a compound having 3 or more and less than 10 is denoted as B)	B (a compound having 3 or more and less than 10 is denoted as B)
CCCN1C(=O)CN(C)C(=O)CN(C)C(=O)[C@H]([C@@H](C)CC)NC(=O)[C@H](CC(C)C)N(C)C(=O)C[C@@H](C(=O)N2CCOCC2)N(C)C(=O)[C@H](C2CCCC2)N(C)C(=O)[C@](C)(COC(C)(C)C)NC(=O)[C@@H]2CCCN2C(=O)[C@H](CCc2cc(F)c(C(F)(F)F)c(F)c2)NC(=O)CN(C)C(=O)[C@@H]1Cc1ccc(C(F)(F)F)cc1 [PP0764] ([NMeL]I[Sar][Sar][NPrPhe(4-CF3)][Sar][hPhe(3,5-F2-4-CF3)]P[αMeS](tBu)[NMeGly(cPent)][NMeD]-Morpholide; lactam N-11)	B (a compound having 3 or more and less than 10 is denoted as B)	B (a compound having 3 or more and less than 10 is denoted as B)
CCCN1C(=O)CN(C)C(=O)CN(C)C(=O)[C@H]([C@@H](C)CC)NC(=O)[C@H](CC(C)C)N(C)C(=O)C[C@@H](C(=O)N2CCOCC2)N(C)C(=O)[C@H](C2CCCC2)N(C)C(=O)C2(COC2)NC(=O)[C@@H]2CCCN2C(=O)[C@H](CCc2cc(F)c(C(F)(F)F)c(F)c2)NC(=O)CN(C)C(=O)[C@@H]1Cc1ccc(C(F)(F)F)cc1 [PP0765] ([NMeL]I[Sar][Sar][NPrPhe(4-CF3)][Sar][hPhe(3,5-F2-4-CF3)]P[Ac4c(3-oxa)][NMeGly(cPent)][NMeD]-Morpholide; lactam N-11)	B (a compound having 3 or more and less than 10 is denoted as B)	C (A compound having a KD ratio of 0.1 or more and less than 3 is denoted as C)
CCCN1C(=O)CN(C)C(=O)CN(C)C(=O)[C@H]([C@@H](C)CC)NC(=O)[C@H](CC(C)C)N(C)C(=O)C[C@@H](C(=O)N2CCOCC2)N(C)C(=O)[C@H](C2CCCC2)N(C)C(=O)C2(CC(F)(F)C2)NC(=O)[C@@H]2CCCN2C(=O)[C@H](CCc2cc(F)c(C(F)(F)F)c(F)c2)NC(=O)CN(C)C(=O)[C@@H]1Cc1ccc(C(F)(F)F)cc1 [PP0766] ([NMeL]I[Sar][Sar][NPrPhe(4-CF3)][Sar][hPhe(3,5-F2-4-CF3)]P[Ac4c(3,3-F2)][NMeGly(cPent)][NMeD]-Morpholide; lactam N-11)	B (a compound having 3 or more and less than 10 is denoted as B)	B (a compound having 3 or more and less than 10 is denoted as B)
CCCN1C(=O)CN(C)C(=O)CN(C)C(=O)[C@H]([C@@H](C)CC)NC(=O)[C@H](CC(C)C)N(C)C(=O)C[C@@H](C(=O)N2CCOCC2)N(C)C(=O)[C@H](CC(F)(F)F)N(C)C(=O)C2(CCCC2)NC(=O)[C@@H]2CCCN2C(=O)[C@H](CCc2cc(F)c(C(F)(F)F)c(F)c2)NC(=O)CN(C)C(=O)[C@@H]1Cc1ccc(C(F)(F)F)cc1 [PP0767] ([NMeL]I[Sar][Sar][NPrPhe(4-CF3)][Sar][hPhe(3,5-F2-4-CF3)]P[Ac5c][NMeAbu(4,4,4-F3)][NMeD]-Morpholide; lactam N-11)	B (a compound having 3 or more and less than 10 is denoted as B)	C (A compound having a KD ratio of 0.1 or more and less than 3 is denoted as C)
CCCN1C(=O)CN(C)C(=O)CN(C)C(=O)[C@H](C(CC)CC)NC(=O)[C@H](CC(C)C)N(C)C(=O)C[C@@H](C(=O)N2CCOCC2)N(C)C(=O)[C@H](C2CCCC2)N(C)C(=O)C2(CCCC2)NC(=O)[C@@H]2CCCN2C(=O)[C@H](CCc2cc(F)c(C(F)(F)F)c(F)c2)NC(=O)CN(C)C(=O)[C@@H]1Cc1ccc(C(F)(F)F)cc1 [PP0768] ([NMeL][Nva(3-Et)][Sar][Sar][NPrPhe(4-CF3)][Sar][hPhe(3,5-F2-4-CF3)]P[Ac5c][NMeGly(cPent)][NMeD]-Morpholide; lactam N-11)	B (a compound having 3 or more and less than 10 is denoted as B)	C (A compound having a KD ratio of 0.1 or more and less than 3 is denoted as C)
CCCN1C(=O)CN(C)C(=O)CN(C)C(=O)[C@H](C2CC(F)(F)C2)NC(=O)[C@H](CC(C)C)N(C)C(=O)C[C@@H](C(=O)N2CCOCC2)N(C)C(=O)[C@H](C2CCCC2)N(C)C(=O)C2(CCCC2)NC(=O)[C@@H]2CCCN2C(=O)[C@H](CCc2cc(F)c(C(F)(F)F)c(F)c2)NC(=O)CN(C)C(=O)[C@@H]1Cc1ccc(C(F)(F)F)cc1 [PP0769] ([NMeL][X16][Sar][Sar][NPrPhe(4-CF3)][Sar][hPhe(3,5-F2-4-CF3)]P[Ac5c][NMeGly(cPent)][NMeD]-Morpholide; lactam N-11)	B (a compound having 3 or more and less than 10 is denoted as B)	C (A compound having a KD ratio of 0.1 or more and less than 3 is denoted as C)
CCCN1C(=O)CN(C)C(=O)[C@@H]2CCN2C(=O)[C@H]([C@@H](C)CC)NC(=O)[C@H](CC(C)C)N(C)C(=O)C[C@@H](C(=O)N2CCOCC2)N(C)C(=O)[C@H](C2CCCC2)N(C)C(=O)C2(CCCC2)NC(=O)[C@@H]2CCCN2C(=O)[C@H](CCc2cc(F)c(C(F)(F)F)c(F)c2)NC(=O)CN(C)C(=O)[C@@H]1Cc1ccc(C(F)(F)F)cc1 [PP0770] ([NMeL]I[Aze][Sar][NPrPhe(4-CF3)][Sar][hPhe(3,5-F2-4-CF3)]P[Ac5c][NMeGly(cPent)][NMeD]-Morpholide; lactam N-11)	B (a compound having 3 or more and less than 10 is denoted as B)	B (a compound having 3 or more and less than 10 is denoted as B)
CCCN1C(=O)CN(C)C(=O)[C@@H]2CCN2C(=O)[C@H]([C@@H](C)CC)NC(=O)[C@H](CC(C)C)N(C)C(=O)C[C@@H](C(=O)N2CCOCC2)N(C)C(=O)[C@H](C2CCCC2)N(C)C(=O)[C@](C)(C2CC2)NC(=O)[C@@H]2CCCN2C(=O)[C@H](CCc2cc(F)c(C(F)(F)F)c(F)c2)NC(=O)CN(C)C(=O)[C@@H]1Cc1ccc(C(F)(F)F)cc1 [PP0772] ([NMeL]I[Aze][Sar][NPrPhe(4-CF3)][Sar][hPhe(3,5-F2-4-CF3)]P[X9][NMeGly(cPent)][NMeD]-Morpholide; lactam N-11)	B (a compound having 3 or more and less than 10 is denoted as B)	B (a compound having 3 or more and less than 10 is denoted as B)
